Blank lines part the entries; values can stand above or below the compound they belong to.
How the values were obtained:
[1] = molecular target: T1, Inhibitor of nuclear factor kappa-B kinase subunit beta (Homo sapiens, UniProt O14920)
T1 sequence (O14920 whole entry): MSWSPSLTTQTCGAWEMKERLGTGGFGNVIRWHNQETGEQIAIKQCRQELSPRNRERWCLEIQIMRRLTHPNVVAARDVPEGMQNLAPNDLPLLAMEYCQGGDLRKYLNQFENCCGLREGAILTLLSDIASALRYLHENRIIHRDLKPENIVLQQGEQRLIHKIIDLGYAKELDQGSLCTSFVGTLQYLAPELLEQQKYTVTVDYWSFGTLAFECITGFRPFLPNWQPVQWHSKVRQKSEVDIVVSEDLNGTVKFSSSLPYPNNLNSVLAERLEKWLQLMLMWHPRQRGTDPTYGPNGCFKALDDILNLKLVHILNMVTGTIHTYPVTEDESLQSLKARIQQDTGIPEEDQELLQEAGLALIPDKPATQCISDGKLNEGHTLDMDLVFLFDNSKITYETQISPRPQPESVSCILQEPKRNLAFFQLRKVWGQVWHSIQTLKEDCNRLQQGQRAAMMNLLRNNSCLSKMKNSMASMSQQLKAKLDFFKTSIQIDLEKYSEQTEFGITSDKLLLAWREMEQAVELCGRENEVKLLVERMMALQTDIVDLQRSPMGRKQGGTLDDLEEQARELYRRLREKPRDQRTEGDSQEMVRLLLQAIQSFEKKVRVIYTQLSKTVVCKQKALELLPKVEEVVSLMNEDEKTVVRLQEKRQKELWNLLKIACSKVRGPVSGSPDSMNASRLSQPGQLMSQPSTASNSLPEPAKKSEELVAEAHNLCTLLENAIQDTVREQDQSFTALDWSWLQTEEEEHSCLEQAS

[2] = molecular target: T2, Casein kinase I isoform alpha (Homo sapiens, UniProt P48729)
[3] = molecular target: T3, Casein kinase I isoform delta (Homo sapiens, UniProt P48730)
[4] = molecular target: T4, Casein kinase I isoform epsilon (Homo sapiens, UniProt P49674)
[5] = molecular target: T2, Casein kinase I isoform alpha; remark: listed apart in the source
[6] = molecular target: T3, Casein kinase I isoform delta; remark: listed apart in the source
[7] = molecular target: T4, Casein kinase I isoform epsilon; remark: listed apart in the source

T2 sequence (P48729 whole entry, canonical isoform): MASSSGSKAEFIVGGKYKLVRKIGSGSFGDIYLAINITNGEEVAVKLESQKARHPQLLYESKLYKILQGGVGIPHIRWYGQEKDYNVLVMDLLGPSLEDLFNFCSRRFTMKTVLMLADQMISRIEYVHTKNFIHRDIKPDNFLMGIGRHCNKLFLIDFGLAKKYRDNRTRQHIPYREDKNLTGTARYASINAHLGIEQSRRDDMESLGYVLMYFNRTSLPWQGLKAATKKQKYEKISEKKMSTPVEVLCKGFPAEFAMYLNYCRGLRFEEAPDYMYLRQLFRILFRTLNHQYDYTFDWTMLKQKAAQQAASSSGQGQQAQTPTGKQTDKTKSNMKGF
T4 sequence (P49674 whole entry, canonical isoform): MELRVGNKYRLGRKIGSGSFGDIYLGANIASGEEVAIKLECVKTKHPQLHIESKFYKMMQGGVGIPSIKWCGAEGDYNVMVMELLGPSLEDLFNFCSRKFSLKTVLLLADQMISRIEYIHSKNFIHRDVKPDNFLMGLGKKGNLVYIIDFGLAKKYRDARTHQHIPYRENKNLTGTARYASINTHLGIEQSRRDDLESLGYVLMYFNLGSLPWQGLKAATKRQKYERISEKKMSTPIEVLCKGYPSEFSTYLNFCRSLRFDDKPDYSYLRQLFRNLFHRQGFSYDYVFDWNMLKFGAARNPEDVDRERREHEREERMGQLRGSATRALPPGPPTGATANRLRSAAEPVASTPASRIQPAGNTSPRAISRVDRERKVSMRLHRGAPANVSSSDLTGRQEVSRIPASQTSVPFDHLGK
T3 sequence (P48730 whole entry, canonical isoform): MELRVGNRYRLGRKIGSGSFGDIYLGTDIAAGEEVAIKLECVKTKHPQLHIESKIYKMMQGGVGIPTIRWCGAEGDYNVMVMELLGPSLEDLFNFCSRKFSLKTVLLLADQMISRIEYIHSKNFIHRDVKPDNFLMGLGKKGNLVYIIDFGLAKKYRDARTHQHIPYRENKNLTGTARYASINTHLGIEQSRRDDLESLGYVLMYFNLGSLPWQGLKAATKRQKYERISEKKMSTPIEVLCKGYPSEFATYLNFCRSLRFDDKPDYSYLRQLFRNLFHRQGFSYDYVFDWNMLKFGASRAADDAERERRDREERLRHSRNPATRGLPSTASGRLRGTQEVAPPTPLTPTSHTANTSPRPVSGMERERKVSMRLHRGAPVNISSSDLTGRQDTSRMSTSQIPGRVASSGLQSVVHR

- IC50 [1]: > 10000 nM
Compound: CN(C)C(=O)c1sc2nc(N3CCC(S(C)(=O)=O)CC3)cc(C(F)(F)F)c2c1N [BI-5026]

- IC50 [2]: > 3000 nM
- IC50 [3]: > 3000 nM
- IC50 [4]: > 3000 nM
Compound: CCc1ccc(-c2ncn(CC3(F)CCN(C)CC3)c2-c2ccnc3[nH]ccc23)nc1

- IC50 [5]: 7.2 nM
- IC50 [6]: 6.1 nM
- IC50 [7]: 27.3 nM
Compound: CN1CCC(F)(Cn2cnc(-c3ccc(F)cn3)c2-c2ccnc3[nH]ccc23)CC1

Reference: ChEMBL document CHEMBL5446079, “Affinity Biochemical Literature for EUbOPEN Chemogenomic Library” (2024)
